Results as given in the NIST ThermoML archive (doi:10.1021/je300382a).
± gives the expanded uncertainty stated by the source.

What was measured:
[1] = Ring tensiometer
[2] = refractive index (Na D-line) (dimensionless); details: 101.33 kPa, Liquid, Standard Abbe refractometry
[3] = refractive index (Na D-line) (dimensionless); xn = mol fraction of the nth substance listed; details: 101 kPa, Liquid, Standard Abbe refractometry, x2 = 0
[4] = xn = mol fraction of the nth substance listed; details: Ring tensiometer, x2 = 0

SMILES | surface tension liquid-gas ([1]; 283.15 K) | surface tension liquid-gas ([1]; 293.15 K) | surface tension liquid-gas ([1]; 303.15 K) | surface tension liquid-gas ([1]; 313.15 K) | surface tension liquid-gas ([1]; 323.15 K) | refractive index ([2]; 283.15 K) | refractive index ([2]; 293.15 K) | refractive index ([2]; 303.15 K) | refractive index ([2]; 313.15 K) | refractive index ([2]; 323.15 K) | refractive index ([3]; 283.15 K) | refractive index ([3]; 293.15 K) | refractive index ([3]; 303.15 K) | refractive index ([3]; 313.15 K) | refractive index ([3]; 323.15 K) | surface tension liquid-gas ([4]; 283.15 K) | surface tension liquid-gas ([4]; 293.15 K) | surface tension liquid-gas ([4]; 303.15 K) | surface tension liquid-gas ([4]; 313.15 K) | surface tension liquid-gas ([4]; 323.15 K)
CC(N)CN (stereo not given) [1,2-propanediamine] | 35 ± 0.5 mN/m | 33.8 ± 0.5 mN/m | 32.7 ± 0.5 mN/m | 31.4 ± 0.5 mN/m | 30.3 ± 0.5 mN/m | 1.451 ± 0.0004 | 1.4458 ± 0.0004 | 1.4409 ± 0.0004 | 1.4362 ± 0.0004 | 1.4314 ± 0.0004 | – | – | – | – | – | – | – | – | – | –
NCc1ccccc1 [benzylamine] | 37.9 ± 0.6 mN/m | 37.1 ± 0.5 mN/m | 36.3 ± 0.5 mN/m | 35.6 ± 0.5 mN/m | 35 ± 1 mN/m | 1.5516 ± 0.0004 | 1.5445 ± 0.0004 | 1.5393 ± 0.0004 | 1.5328 ± 0.0004 | 1.5279 ± 0.0004 | – | – | – | – | – | – | – | – | – | –
O [water] + CC(N)CN | – | – | – | – | – | – | – | – | – | – | 1.3343 ± 0.0003 | 1.333 ± 0.0003 | 1.3319 ± 0.0003 | 1.3306 ± 0.0003 | 1.329 ± 0.0003 | 74.2 ± 0.9 mN/m | 72.6 ± 0.9 mN/m | 71.3 ± 0.9 mN/m | 69.2 ± 0.9 mN/m | 67.7 ± 0.9 mN/m
O [water] + NCc1ccccc1 | – | – | – | – | – | – | – | – | – | – | 1.3343 ± 0.0003 | 1.333 ± 0.0003 | 1.3319 ± 0.0003 | 1.3306 ± 0.0003 | 1.329 ± 0.0003 | 74.2 ± 0.9 mN/m | 72.6 ± 0.9 mN/m | 71.1 ± 0.9 mN/m | 69.2 ± 0.9 mN/m | 67.7 ± 0.9 mN/m
